Assay results from patent publication US5565444A, “Osteogenesis promoter and osteoporosis remedy” (LTT Institute Co., Ltd., priority 1993, dated 1996).
Like-named read-outs stand apart in the source and are kept apart here.

How the values were obtained:
[1] = test system: Osteogenic Precursor Cells in Bone Marrow; assay: Effects on the number of osteogenic precursor cells in bone marrow, Experiment 2 (FCFU formation after subcutaneous administration); format: in vivo; conditions: 7 successive days, Lewis rat, N = 4
Procedure: (§1) After the invention compound was administered to a 7-weeks old Wistar or Lewis rat intraperitoneally (Experiment 1) or dorsi-subcutaneously (Experiment 2) for 7 successive days, the femurs and tibias were excised. Marrow cells were collected from the bones so obtained, followed by incubation in a 25-cm^2 culture flask for 7 days. For the incubation, the αMEM medium containing 15% fetal calf serum was used. Subsequent to giemsa or alkaline phosphatase staining, the number of fibroblast colony forming units on the culture flask was counted. The number of the fibroblast colony forming units (=FCFUs) is known to correlate with the in vitro ostogenesis. The total number of FCFUs and the number of FCFUs positive to alkaline phosphatase are shown in Table 1 and Table 2, respectively. Experiment 1:
Influence of the subcutaneous administration of
the invention compounds and testosterone for 7
successive days on the formation of FCFUs:
The number of FCFUs (after 7 days) (Lewis rat N = 4)

[2] = background report, cited from earlier work
[3] = test system: anterior lobe of prostate; assay: Androgenic action, Hershberge method (1); format: in vivo, castrated Wistar male rat; conditions: 10 successive days, FIG. 8
Procedure: (§2) (1) In accordance with the Hershberge method, a castrated, 4-weeks old, Wistar, male rat (6 rats per group) was subcutaneously administered with 11-OH-Δ^4- A at 0.1-0.3 mg/rat/day for 10 successive days. Similarly, a vehicle (sesame oil) was administered to the Sham-operated group and a control group, and testosterone propionate (T.P.) was administered at 0.1 mg/rat/day as a positive control. On the day following the completion of the administration, the anterior lobe of prostate and the musculus levator ani were excised and weighed. From a change in the weight of the anterior lobe of the prostate and the musculus levator ani, androgenic action and anabolic action were studied.

[4] = test system: osteogenic precursor cells; assay: Improving effects on the osteogenesis depression in postovariectomy osteoporosis (FCFU forming ability); format: in vivo, female Wistar rat (ovariectomized)
Procedure: From a 7-weeks old female Wistar rat, the ovaria were both excised and three months after that, administration of a drug was started. As the drug, 11β-OH-Δ^4 -A, was administered dorsi-subcutaneously three times a week, each, at 0.1 mg/kg or 1 mg/kg. Subsequent to the administration of the drug for 1 month, the femurs and shinbones were collected. From the right femur and both the shinbones, osteoblasts were collected and the formation of colonies (FCFUs) of osteogenic precursor cells was observed.

[5] = test system: osteocalcin; assay: Effects on serum osteocalcin (radioimmunoassay); format: in vivo, Wistar rat
Procedure: A 7-weeks old Wistar rat was intraperitoneally administered at 0.1 mg/kg with 11β-OH-Δ^4 -A for 7 successive days and the concentration of osteocalcin in the serum was measured by radioimmunoassay.

[6] = test system: Osteogenic Precursor Cells in Bone Marrow; assay: Effects on the number of osteogenic precursor cells in bone marrow, Experiment 1 (FCFU formation after intraperitoneal administration); format: in vivo; conditions: 1 mg/kg intraperitoneal, 7 successive days; Wistar rat, N = 4; after 7 days incubation
Procedure: as §1
Influence of the intraperitoneal administration of
the invention compound at 1 mg/kg for 7 successive
days on the formation of FCFUs:
The number of FCFUs (after 7 days) (Wistar rat N = 4)

[7] = test system: musculus levator ani; assay: Anabolic action, Hershberge method (1); format: in vivo, castrated Wistar male rat; conditions: 0.3 mg/rat/day subcutaneous, 10 successive days; FIG. 8
Procedure: as §2

[8] = Improving effects on the bone mass reduction in postovariectomy osteoporosis (bone-salt amount by DXA); format: in vivo, female Wistar rat (ovariectomized); conditions: three times a week, 3 months, FIGS. 3-6
Procedure: From a 7-weeks old female Wistar rat, the ovaria were both excised. Three months after that, the administration of a drug was started. As the drug, 11β-OH-^4 -A or dihydroepiandrosterone (DHEA) was dorsisubcutaneously administered three times a week, each, at 1 mg/kg. After the drug administration was continued for 3 months, the femurs and shinbones were collected and the bone-salt amount was measured at three places, that is, the proximal end, diaphysis and distal end. The measurements of the bone-salt amount were conducted using an Aloka DCS-600 model by dual energy X-ray absorptiometry (DXA).

[9] = Acute toxicity test; conditions: in vivo, sc; subcutaneous, Wistar rat
Procedure: An acute toxicity test of the invention compound 11β-OH-Δ^4 -A was conducted in the following manner.
To a Wistar rat, 11β-OH-Δ^4 -A was subcutaneously administered in an amount considered to be an intoxicating dose. The conditions of the rat were observed and at the same time, the LD50 value was determined.

Molecule: C[C@]12C=CC(=O)C=C1CC[C@@H]1[C@@H]2[C@@H](O)C[C@]2(C)C(=O)CC[C@@H]12 [11β-OH-Δ^1,4 -A, 11β-hydroxy-1,4-androstadiene-3,17-dione]
- The number of FCFUs positive for alkaline phosphatase ([1]; 0.1 mg/kg subcutaneous): 85 ± 11
- The total FCFU number ([1]; 0.1 mg/kg subcutaneous): 178 ± 20
- The number of FCFUs positive for alkaline phosphatase ([1]; 1 mg/kg subcutaneous): 117 ± 12
- The total FCFU number ([1]; 1 mg/kg subcutaneous): 217 ± 22

Molecule: estrogen
- effect on bone mass of ovariectomized animals [2]: evident curative effect for a decrease in the bone mass of an ovariectomized animal

Molecule: C[C@]12CC[C@H](O)CC1=CC[C@@H]1[C@@H]2CC[C@]2(C)C(=O)CC[C@@H]12 [dihydroepiandrosterone (DHEA), dihydroepiandrosterone]
- effect on bone mass of ovariectomized animals [2]: extremely weak
- effect on bone mass of ovariectomized animals ([2]; listed as dihydroepiandrosterone): bone-salt improving effects on the ovariectomized rat

Molecule: C[C@]12CCC(=O)C=C1CC[C@@H]1[C@@H]2[C@@H](O)C[C@]2(C)C(=O)CC[C@@H]12 [11β-OH-Δ^4 -A, 11β-hydroxy-4-androstene-3,17-dione]
- weight of the prostate ([3]; 0.1-0.3 mg/rat/day (0.6-1.8 mg/kg/day) subcutaneous): a significant increase in the weight of the prostate
- Androgenic action ([3]; 0.1-0.3 mg/rat/day subcutaneous): very weak
- osteogenesis depression observed after the ovariectomy ([4]; 0.1 mg/kg thrice a week for a month): successfully normalized back the osteogenesis depression observed after the ovariectomy
- FCFU formation ([4]; 0.1 mg/kg, dorsi-subcutaneous, three times a week, 1 month, FIG. 2): a marked increase in the FCFU formation
- Serum osteocalcin concentration ([5]; 0.1 mg/kg intraperitoneal, 7 successive days): 72.6 ± 2.7 ng/mL
- Serum osteocalcin concentration ([5]; 5 mg/kg): 75.5 ± 1.0 ng/mL
- concentration of osteocalcin (in words) ([5]; successive administration): increase the concentration of osteocalcin
- The number of FCFUs positive for alkaline phosphatase ([1]; 0.1 mg/kg subcutaneous): 96 ± 16
- The total FCFU number ([1]; 0.1 mg/kg subcutaneous): 180 ± 9
- The number of FCFUs positive for alkaline phosphatase ([1]; 1 mg/kg subcutaneous): 128 ± 19
- The total FCFU number ([1]; 1 mg/kg subcutaneous): 189 ± 26
- The number of FCFUs positive for alkaline phosphatase [6]: 40 ± 11
- The total FCFU number [6]: 160 ± 35
- weight of the musculus levator ani (anabolic action) [7]: An increase in the weight of the musculus levator ani
- bone-salt amount at places of the femur ([8]; 1 mg/kg dorsi-subcutaneous): recovered to similar levels to those of the Sham-operated rat
- bone-salt effects compared with dihydroepiandrosterone ([8]; 1 mg/kg each, dorsi-subcutaneous): more potent than those of dihydroepiandrosterone
- LD50 [9]: ≥ 1000 mg/kg

Molecule: C[C@]12CC[C@H]3[C@@H](CCC4=CC(=O)CC[C@@]43C)[C@@H]1CC[C@@H]2O [Testosterone, reference compound]
- The number of FCFUs positive for alkaline phosphatase ([1]; 1 mg/kg subcutaneous): 62 ± 5
- The total FCFU number ([1]; 1 mg/kg subcutaneous): 149 ± 5
